Among the data in patent US20080076926A1, “Process for the preparation of 4-hydroxythieno[2,3-b]pyridine-5-carbonitriles” (priority 2006, published 2008) are melting point values, retold here.

Regarding `N#Cc1cnc2sc(-c3ccccc3)cc2c1Cl` [Example 16, 4-chloro-2-phenylthieno[2,3-b]pyridine-5-carbonitrile], the melting point (as a rule, the temperature, or range, at which the solid turns liquid) was in the range of 202 to 204 °C.

In turn, `N#Cc1cnc2sc(Br)cc2c1O` [Example 30, 2-bromo-4-hydroxythieno[2,3-b]pyridine-5-carbonitrile] displayed a melting point greater than 255 °C. The figure for `Cc1csc2[nH]cc(C#N)c(=O)c12` [Example 3, 3-methyl-4-oxo-4,7-dihydrothieno[2,3-b]pyridine-5-carbonitrile] is 285 °C; for `CC(C)c1c(I)sc2ncc(C#N)c(Cl)c12` [Example 8, 4-chloro-2-iodo-3-isopropylthieno[2,3-b]pyridine-5-carbonitrile] it is 177 to 179 °C; for `Cc1cc2c(Cl)c(C#N)cnc2s1` [Example 10, 4-chloro-2-methylthieno[2,3-b]pyridine-5-carbonitrile] it is 110 to 112 °C.
